# Reference: ChEMBL document CHEMBL3763094, “Synthesis of 2-arylfuro[3,2-b]pyridines: Effect of the C2-aryl group on melatoninergic activity” (Eur J Med Chem, 2016)
# Activity calls are given as the source filed them. No cut-off for these calls is given here.
# Key:
# [1] = molecular target: T1, Melatonin receptor type 1A (Homo sapiens, UniProt P48039); experiment: Agonist activity at MT1 receptor (unknown origin) expressed in CHO cells incubated for 1 hr by [35S]GTPgammaS binding assay; type: functional, cell-based
# T1 sequence (P48039 whole entry): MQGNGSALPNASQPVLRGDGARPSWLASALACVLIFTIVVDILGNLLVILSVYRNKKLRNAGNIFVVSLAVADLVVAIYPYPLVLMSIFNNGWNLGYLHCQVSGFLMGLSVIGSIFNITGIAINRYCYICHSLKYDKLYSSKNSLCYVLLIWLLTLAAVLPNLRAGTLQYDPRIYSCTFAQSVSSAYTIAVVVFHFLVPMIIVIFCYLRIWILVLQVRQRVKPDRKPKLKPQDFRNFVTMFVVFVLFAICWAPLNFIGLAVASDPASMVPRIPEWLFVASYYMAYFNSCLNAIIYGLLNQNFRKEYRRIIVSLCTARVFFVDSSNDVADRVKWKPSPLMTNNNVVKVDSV
# [2] = molecular target: T1, Melatonin receptor type 1A; experiment: Displacement of [125I]2-Iodomelatonin from human MT1 receptor expressed in HEK293 cells after 120 mins by radioligand competition assay; type: cell-based
# [3] = molecular target: T2, Melatonin receptor type 1B (Homo sapiens, UniProt P49286); experiment: Displacement of [125I]2-Iodomelatonin from human MT2 receptor expressed in HEK293 cells after 120 mins by radioligand competition assay; type: cell-based
# T2 sequence (P49286 whole entry): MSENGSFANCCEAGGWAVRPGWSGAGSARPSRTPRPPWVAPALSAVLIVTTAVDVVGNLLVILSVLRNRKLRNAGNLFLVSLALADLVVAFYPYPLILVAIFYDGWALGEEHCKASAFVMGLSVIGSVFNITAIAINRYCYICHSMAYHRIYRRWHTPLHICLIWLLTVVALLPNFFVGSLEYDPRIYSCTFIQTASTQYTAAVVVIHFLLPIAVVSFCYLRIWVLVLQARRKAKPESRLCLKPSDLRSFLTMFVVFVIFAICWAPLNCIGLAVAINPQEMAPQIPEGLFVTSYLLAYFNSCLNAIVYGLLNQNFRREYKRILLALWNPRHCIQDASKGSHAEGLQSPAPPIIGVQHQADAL
# Homo sapiens = species on record: Homo sapiens; experiment: Selectivity ratio of Ki for human MT1 receptor to Ki for human MT2 receptor
# [4] = molecular target: T3, Melatonin receptor type 1B (Homo sapiens) (UniProt P49286); experiment: Agonist activity at MT2 receptor (unknown origin) expressed in CHO cells incubated for 1 hr by [35S]GTPgammaS binding assay; type: functional, cell-based
# T3 sequence (whole entry): T2 sequence (P49286 whole entry)
# [5] = molecular target: T3, Melatonin receptor type 1B (Homo sapiens); experiment: Antagonist activity at MT2 receptor (unknown origin) expressed in CHO cells assessed as inhibition of melatonin-induced response for 30 mins by [35S]GTPgammaS binding assay; type: functional, cell-based
# [6] = molecular target: T1, Melatonin receptor type 1A; experiment: Antagonist activity at MT1 receptor (unknown origin) expressed in CHO cells assessed as inhibition of melatonin-induced response for 30 mins by [35S]GTPgammaS binding assay; type: functional, cell-based
# [7] = molecular target: T3, Melatonin receptor type 1B (Homo sapiens); experiment: Partial agonist activity at MT2 receptor (unknown origin) expressed in CHO cells incubated for 1 hr by [35S]GTPgammaS binding assay; type: functional, cell-based
# [8] = molecular target: T1, Melatonin receptor type 1A; experiment: Partial agonist activity at MT1 receptor (unknown origin) expressed in CHO cells incubated for 1 hr by [35S]GTPgammaS binding assay; type: functional, cell-based
Activity [1],Ki [2] [nM],Ki [3] [nM],Ratio Ki (Homo sapiens),Activity [4],Activity [5],Activity [6],Activity [7],Activity [8],SMILES
Active,0.04,0.14,0.3,Active,–,–,–,–,COc1ccc2oc(-c3ccccc3)c(CCNC(C)=O)c2n1
Active,0.2,0.08,2.5,Active,–,–,–,–,COc1ccc2oc(I)c(CCNC(C)=O)c2n1
Active,2.2,0.09,22.2,–,Active,–,–,–,COc1ccc2oc(-c3ccc4ccccc4c3)c(CCNC(C)=O)c2n1
–,120,9,13.3,–,–,Active,Active,–,COc1ccc2oc(-c3c(C)cccc3C)c(CCNC(C)=O)c2n1
–,9.5,35,0.3,–,–,–,–,–,COc1cc2c(CCNC(C)=O)c[nH]c2cn1
–,31,5,6.2,–,Active,–,–,Active,COc1ccc2oc(-c3c4ccccc4cc4ccccc34)c(CCNC(C)=O)c2n1
–,198,1.3,152,–,Active,Active,–,–,COc1ccc2oc(-c3cccc4ccccc34)c(CCNC(C)=O)c2n1
–,–,–,790,–,–,–,–,–,CCC(=O)NCCCc1cc(OC)ccc1OCc1cccc(OC)c1
Active,0.2,0.03,6.7,Active,–,–,–,–,COc1ccc2oc(-c3ccc(F)cc3)c(CCNC(C)=O)c2n1
–,–,–,0.7,–,–,–,–,–,COc1ccc2[nH]cc(CCNC(C)=O)c2n1
–,68,5,13.6,–,Active,–,–,Active,COc1ccc2oc(-c3cc4ccccc4c4ccccc34)c(CCNC(C)=O)c2n1
–,73,59,1.2,–,–,–,–,–,COc1cc2c(CCNC(C)=O)coc2cn1
Active,1.6,1.2,1.5,Active,–,–,–,–,COc1ccc2occ(CCNC(C)=O)c2n1
